Data: PMC11440035, “Interaction of myricetin, ampelopsin (dihydromyricetin), and their sulfate metabolites with serum albumin, cytochrome P450 (CYP2C9, 2C19, and 3A4) enzymes, and organic anion‐transporting polypeptides (OATP1B1 and OATP2B1)” (Pharmacology Research & Perspectives, 2024)
Read-outs that look alike come from different tables or passages of the source.

How the values were obtained:
[1] = target: T1, OATP2B1 (Homo sapiens, UniProt O94956); assay: Uptake of flavonoids by A431-OATP2B1 versus mock cells (APB fluorescence); type: cell-based; details: for cellular flavonoid level in OATP2B1‐overexpressing versus mock control cells: 10 μM flavonoid, 15 min, 37°C; for substrate of OATP2B1: conclusion from uptake studies
T1 construct: expressed in transfected cells; host or cells: A431
T1 sequence (O94956 1-709): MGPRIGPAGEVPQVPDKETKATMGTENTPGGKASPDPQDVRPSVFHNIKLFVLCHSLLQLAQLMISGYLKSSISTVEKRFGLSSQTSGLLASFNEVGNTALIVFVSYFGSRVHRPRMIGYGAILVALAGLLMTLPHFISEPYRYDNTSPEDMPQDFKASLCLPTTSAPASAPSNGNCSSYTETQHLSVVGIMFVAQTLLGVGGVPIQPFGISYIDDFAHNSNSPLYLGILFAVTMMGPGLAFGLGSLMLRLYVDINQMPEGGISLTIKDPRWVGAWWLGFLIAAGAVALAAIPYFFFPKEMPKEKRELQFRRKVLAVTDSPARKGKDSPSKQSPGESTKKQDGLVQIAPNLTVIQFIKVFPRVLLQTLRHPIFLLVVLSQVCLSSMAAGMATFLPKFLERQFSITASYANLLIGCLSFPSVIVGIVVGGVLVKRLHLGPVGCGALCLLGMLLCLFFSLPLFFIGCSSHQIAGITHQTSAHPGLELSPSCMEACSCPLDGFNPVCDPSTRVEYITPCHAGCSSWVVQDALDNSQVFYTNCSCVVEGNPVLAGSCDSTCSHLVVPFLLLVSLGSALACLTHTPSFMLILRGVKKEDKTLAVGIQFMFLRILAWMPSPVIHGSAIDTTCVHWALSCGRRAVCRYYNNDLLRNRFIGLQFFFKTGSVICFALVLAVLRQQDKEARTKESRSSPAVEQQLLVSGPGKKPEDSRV
Method: Direct uptake of AMP, MYR, and their sulfate metabolites were examined in A431 cells overexpressing OATP1B1 or OATP2B1, and in their mock‐transfected controls using APB as a fluorescence enhancer. One day before the uptake measurements, the cells were seeded onto 96‐well plates at a density of 80 000 cells/well in DMEM (200 μL). The following day, the cell culture medium was removed, and the cells were rinsed thrice with PBS (200 μL). Thereafter, the cells were preincubated with HBSS (50 μL) for 5 min at 37°C. The uptake reaction was initiated by the addition of a further 50 μL of HBSS containing AMP, MYR, or their sulfate conjugates (10 μM). After incubating for 15 min at 37°C, the reaction was stopped by removing the supernatant and rinsing the cells three times with ice‐cold PBS. Then PBS buffer (200 μL) containing APB (250 μg/mL) and BSA (1 mg/mL) was added to each well.[35] The fluorescence was read using an Enspire plate reader using the wavelengths listed in Section 2.7.
The concentration‐dependent uptake of M3′S was also tested under the same conditions, except the cells were incubated with 0–10 μM M3′S for 2 min (OATP1B1) or 5 min (OATP2B1).
To test the effect of BSP (a known inhibitor of OATPs[44]) on the cellular uptake of M3′S, cells were preincubated with HBSS buffer (50 μL) with or without BSP (20 μM) for 5 min at 37°C. Thereafter, we added 50 μL of HBSS containing M3′S (final concentration: 2 μM), and cells were further incubated at 37°C for 2 min (OATP1B1) or 5 min (OATP2B1). The reaction was stopped by removing the supernatant. After washing the cells with ice‐cold PBS, a PBS buffer with APB/BSA was added. Fluorescence was determined by applying an Enspire plate reader at excitation/emission wavelengths of 480/540 nm.

[2] = test system: OATP2B1; set-up: method as in PMID 37252098, PMID 28745105; details: cited from earlier work
[3] = cited from earlier work
[4] = test system: OATP1B1; details: cited from earlier work
[5] = cited from earlier work; remark: listed apart in the source
[6] = test system: T2, CYP2C19; assay: CYP2C19 assay ((S)‐mephenytoin hydroxylation), CypExpress human kit; type: biochemical; details: probe (S)‐mephenytoin, 20 μM flavonoid, 5 μM substrate, read-out: inhibitory action on CYP2C19‐mediated (S)‐mephenytoin hydroxylation
T2 construct: purchased Merck (Darmstadt, Germany)
Method: The isocratic elution was carried out with sodium acetate buffer (6.9 mM, pH 4) and acetonitrile (72:28 v/v%) as the mobile phase. (S)‐Mephenytoin and 4‐hydroxymephenytoin were detected at 230 nm.

[7] = set-up: method as in PMID 26032587; details: double‐blind randomized controlled clinical trial; cited from earlier work

Row | SMILES | cellular flavonoid level in OATP2B1‐overexpressing versus mock control cells [1] | substrate of OATP2B1 [1] | concentration‐dependent uptake in OATP2B1‐overexpressing cells ([1]; 0–10 μM, 5 min) | inhibitory effects on OATP2B1‐dependent transport of 4′,5′‐dibromofluorescein and estrone 3‐sulfate [2] | oral bioavailability ([3]; MYR, rats) | peak plasma concentrations of MYR and its (sulfate and glucuronide) metabolites together ([3]; rats, per os 100 mg/kg MYR) [µM] | decrease in the OATP1B1‐mediated transport of dehydroepiandrosterone sulfate and fluvastatin ([4]; 50 μM MYR) | IC50 ([4]; read-out: IC50, OATP1B1, 2′,7′‐dichlorofluorescein uptake) [µM] | effect on plasma levels of tolbutamide (CYP2C9 substrate) and midazolam (CYP3A4 substrate) ([5]; rat experiment) | effect of peroral co‐administration on docetaxel pharmacokinetics ([5]; rat study) | inhibition at 20 μM [6] [%] | effect in patients with nonalcoholic fatty liver disease [7] | oral bioavailability ([3]; AMP, rat studies) | peak plasma concentrations of the aglycone ([3]; rats, peroral 100 mg/kg AMP) [nM]
1 | O=C1c2c(O)cc(O)cc2OC(c2cc(O)c(OS(=O)(=O)O)c(O)c2)C1O (centres unmarked) [A4′S, ampelopsin‐4′‐O‐sulfate] | did not show statistically significant differences | not substrates |  |  |  |  |  |  |  |  |  |  |  | 
2 | O=c1c(O)c(-c2cc(O)c(O)c(OS(=O)(=O)O)c2)oc2cc(O)cc(O)c12 [M3′S, myricetin‐3′‐O‐sulfate] | almost five‐fold | substrate | saturable uptake |  |  |  |  |  |  |  |  |  |  | 
3 | O=c1c(O)c(-c2cc(O)c(O)c(O)c2)oc2cc(O)cc(O)c12 [MYR, myricetin] | did not show statistically significant differences | not substrates |  | only weak inhibitory effects | less than 10% | 8 | approximately 35% | 5.8 | increased the plasma levels of tolbutamide | increased the oral bioavailability and peak plasma concentration of the drug |  |  |  | 
4 | O=C1c2c(O)cc(O)cc2O[C@H](c2cc(O)c(O)c(O)c2)[C@H]1O [AMP, ampelopsin] | did not show statistically significant differences | not substrates |  |  |  |  |  |  |  |  | 5 | improved glucose and lipid metabolism | approximately 4% | 300 to 500
